Like-named read-outs stand apart in the source and are kept apart here.
Experiments:
[1] = Oral and iv pharmacokinetics of 3-SPA in male SD rats; format: in vivo, Sprague-Dawley rats
Procedure: The oral and iv pharmacokinetics of 3-SPA was evaluated in male Sprague-Dawley fasted rats at a dose of 30 mg/kg and 10 mg/kg respectively (n=3 per groups). Animals were housed in a standard facility, with water and food was provided ad libitum to the experiment. 3-SPA was dissolved in saline, was administered orally by gavage and intravenously as a bolus. Serial blood samples (approximately 1.0 mL each) were collected from each animal at 0.25, 0.5, 1, 2, 4, 8 and 24 hours after dosing into tubes containing K2EDTA and processed for plasma by centrifugation. Plasma samples were stored at −80° C. until bioanalyses.
A separate group of animals was dosed orally at 30 mg/kg and terminal brain, CSF and plasma samples were collected at 1, 2, 6, and 24 hr (3 animals for each time point) for bioanalyses of 3-SPA in brain and CSF, and to estimate brain penetration relative to plasma concentrations. The in-life study was performed at Agilux Laboratories (Worcester, MA) following quality standards in line with Good Laboratory Practice. Bioanalyses of rat plasma, CSF and brain was preformed using LC-MS/MS at Nextcea. Prior to processing rat brains for bioanalysis, the brains were perfused to remove pooled blood. Pharmacokinetic data analyses were conducted using Winnonlin Professional v5.0.1 (Pharsight, Mountain View, CA).
The plasma concentration of a single dose of 3-SPA, dissolved in saline as a clear solution, administered orally and intravenously to rats at a dose level of 30 mg/kg and 10 mg/kg, respectively, are shown in FIG. 9. Brain, CSF and corresponding plasma levels after a single oral dose of dose of 30 mg/kg of 3-SPA at 1, 2, 6, and 24 hr are shown in FIG. 10. Mean PK curves were used for calculation of pharmacokinetic parameters.

[2] = tested on: CYP; experiment: Metabolism and CYP interactions of 3-SPA
From the text: ALZ-801 is a valine conjugate of tramiprosate that has been optimized for improved pharmacokinetic properties and gastrointestinal tolerability. Chronic toxicology studies required for the advancement of ALZ-801 to Phase 3 have been completed, including the nonclinical safety characterization of ALZ-801, and the safety bridge to the extensive nonclinical toxicology and safety data for tramiprosate. […] See Hey et al., Clinical Pharmacokinetics and Safety of ALZ-801, a Novel Prodrug of Tramiprosate in Development for the Treatment of Alzheimer's Disease. Clin Pharmacokinetics 2018; 315-333 and Kocis et al., Elucidating the Abeta42 Anti-Aggregation Mechanism of Action of Tramiprosate in Alzheimer's Disease: Integrating Molecular Analytical Methods. Pharmacokinetic and Clinical Data. CNS Drugs 2017; 31:495-509. […] Both ALZ-801 and tramiprosate have consistent elimination half-life in plasma across species following repeated oral doses of ALZ-801, indicating no potential for accumulation after chronic dosing. Following conversion of ALZ-801 to tramiprosate, tramiprosate is consistently metabolized in vivo into a single major metabolite, 3-sulfopropanoic acid (3-SPA), in humans, mice, rats, dogs and minipigs.

Tmax ([1]; Sprague-Dawley, rat, iv 10 mg/kg, plasma, read-out: Tmax): 4.8 min | Cl_obs ([1]; iv 10 mg/kg): 45 mL/min/kg | Vss_obs ([1]; iv 10 mg/kg): 12.9 L/kg | Vz_obs ([1]; iv 10 mg/kg): 43.6 L/kg | AUC 0-inf_obs ([1]; iv 10 mg/kg, plasma): 3638 ng·h/mL | AUC 0-t ([1]; iv 10 mg/kg, plasma): 3407 ng·h/mL | C0 ([1]; iv 10 mg/kg, plasma): 13599 ng/mL | Cmax ([1]; iv 10 mg/kg, plasma): 7484 ng/mL | t½ ([1]; iv 10 mg/kg, plasma): 659.4 min | Oral Bioavailability ([1]; oral 30 mg/kg vs iv 10 mg/kg): ~100% | AUC 0-inf_obs ([1]; oral 30 mg/kg, plasma): 19061 ng·h/mL | AUC 0-t ([1]; oral 30 mg/kg, plasma): 18894 ng·h/mL | Cmax ([1]; oral 30 mg/kg, plasma): 8943 ng/mL | Lambda_z ([1]; oral 30 mg/kg, plasma): 0.16 h⁻¹ | Tmax ([1]; oral 30 mg/kg, plasma): 30 min | t½ ([1]; oral 30 mg/kg, plasma): 264 min
SMILES: O=C(O)CCS(=O)(=O)O [3-SPA, 3-sulfopropanoic acid]
Further metabolism or CYP interactions (in words) [2]: No further metabolism or CYP interactions have been observed
